Measurements published in patent US20160082109A1, “COPOLYMER AND NANOPARTICLES OBTAINED THEREFROM FOR DRUG DELIVERY” (FONDAZIONE ISTITUTO ITALIANO DI TECNOLOGIA, priority 2013, published 2016).

Legend:
[1] = format: physicochemical
Description: The tests were conducted on 2±0.3 mg of polymer, placed in polypropyplene vials filled with 1 ml of deionized H2O and kept in a thermostatic bath at 37° C. for 33 days. At regular intervals the samples were withdrawn, the degradation medium was separated for evaluation of the pH while the degraded polymers were dried in a ventilated stove at 50° C. for 3 h and then analysed by gel permeation chromatography (GPC).
The pH measurements were conducted on the degradation means (deionized H2O) after pre-set times. In particular, the degradation means were withdrawn from the vials containing the polymer, prepared as reported in example 1, during the degradation tests in the previous example and the measurement was performed using a pH-meter on the samples just taken at a temperature of 37° C.

[2] = test system: bEND.3 cells; assay: Confocal microscopy of nanoparticle internalization and RhB delivery; format: cell-based, mice; conditions: 6 h; nanoparticles 10 μg/ml, free RhB 113 ng/ml
Description: Immortalized endothelial cells of mice, bEND.3 (American Type Culture Collection, Manassas, Va., USA) were cultivated in a DMEM medium with high levels of glucose in the presence of 10% of FBS, L-glutamine 2 mM, 1000 U/ml penicillin and 1 mg/ml of streptomycin. The cells split from 2 to 20 times were kept in a humidified incubator for cell cultures at 37° C. and 5%, CO2. This cell line was chosen because it is a suitable model for providing an endothelial barrier. […] The free rhodamine (113 ng/ml, the same quantity of rhodamine administered with the nanoparticles), was used as negative control for the absorption test for nanoparticles loaded with rhodamine B. […] Lysotracker-red-[…] 50 nM was added to mark the lysosomes and verify the intracellular localization of the nanoparticles. To understand the release potential by the nanoparticles, the internalization of nanoparticles loaded with RhB by bEND.3 cells was compared with the detection of fluorescent RhB not loaded on nanoparticles (FIGS. 15a and 15b respectively).

| pH of the degradation means (lower values / end of the test) [1] | Compound | RhB internalization in cells [2] |
| --- | --- | --- |
| comparable | polycaprolactone [PCL] |  |
|  | CCN(CC)c1ccc2c(-c3ccccc3C(=O)O)c3ccc(=[N+](CC)CC)cc-3oc2c1.[Cl-] [Free RhB, rhodamine B] | not observed |
